Assay results as given in patent US9023851B2 (Merck Patent GmbH, priority 2010, dated 2015).
pIC50: −log10 of the molar value.

Assays:
Format in all cases: biochemical
KDR = molecular target: T1, KDR (Homo sapiens, UniProt P35968); assay: KDR enzymatic assay (Caliper LifeSciences technology)
T1 construct: purchased BPS Bioscience, CA, USA
Protocol: (§1) Enzymatic Assays Using the Caliper LifeSciences Technology
(§2) The assays described here are performed on the Caliper Life Sciences LC3000 system This technology provides data on enzyme activity via measurement of the relative amounts of phosphorylated or unphosphorylated fluorescently labelled substrate peptide at the end of an enzymatic reaction. These different states of peptide are resolved by applying a potential difference across the sample. The presence of the charged phosphate group on the product (as opposed to the substrate) causes a different peptide mobility between the two peptides. This is visualized by excitation of the fluorescent label on the substrate and product peptides and represented as peaks within the analysis software.
(§3) In order to measure inhibitor activity of kinase inhibitors on this technology, a TTP Mosquito liquid handling instrument is used to place 0.25 ul of the appropriate concentration of inhibitor in 100% DMSO (for a dose response curve calculation) into each well of a 384-well plate. To this reaction components are added to a final volume of 25 ul. The table below indicates the sequences and concentrations for the assays described in this report. Standard components are 1 mM DTT (Sigma, D0632), 1 mM MgCl2 (Sigma, M1028), 100 mM HEPES pH 7.5 (Calbiochem, 391338), 0.015% Brij-35 (Sigma, B4184).
(§4) The reaction is incubated for 90 min at 25 C, and then stopped by the addition of 70 ul of Stop buffer (100 mM HEPES pH 7.5, 0.015% Brij-35, 10 mM EDTA (Sigma, E7889)).
(§5) The plate is read on a Caliper LC 3000 in an Off-Chip mobility shift assay format, on a 12-sipper chip. Unphosphorylated substrate and phosphorylated product peptide resolve as separate peaks allowing direct measurement of percentage of conversion of substrate to product. The percent conversion can be plotted against concentration of inhibitor to produce a sigmoidal dose response curve, from which an IC50 can be calculated using GeneData Condoseo or a similar product. Cellular activity assays

Syk = molecular target: T2, Syk (Homo sapiens, UniProt P43405); assay: Syk enzyme assay (flash plate / Caliper mobility shift)
T2 construct: purchased BPS Bioscience, CA, USA
Protocol: The kinase assay is performed either as 384-well Flashplate assay (for e.g. Topcount measurement) or as 384-well Image-Flashplate assay (for LEADseeker measurement).
2.5 nM SYK, 400 nM Biotin-Aha-Aha-[…] and 10 μM ATP (spiked with 0.3 μCi 33P-ATP/well) are incubated in a total volume of 50 μl (60 mM Hepes, 10 mM MgCl2, 1.2 mM Dithiothreitol, 0.02% Brij35, 0.1% BSA, pH 7.5) with or without test compound for 1 hours at 30° C. The reaction is stopped with 25 μl 200 mM EDTA. After 30 Min at 30° C. the liquid is removed and each well washed thrice with 100 μl 0.9% sodium chloride solution. Non-specific reaction is determined in presence of 0.1 μM Staurosporine. Radioactivity is measured with Topcount (when using Flashplates) or with LEADseeker (when using Image-Flashplates) respectively. Results (e.g. IC50-values) are calculated with program tools provided by the IT-department (e.g. Symyx Assay Explorer, Genedata Screener).
as §1, §2, §3, §4, §5

ZAP-70 = molecular target: T3, ZAP-70 (Homo sapiens, UniProt P43403); assay: Zap70 enzymatic assay (Caliper LifeSciences technology)
T3 construct: purchased BPS Bioscience, CA, USA
T3 sequence (P43403 1-619): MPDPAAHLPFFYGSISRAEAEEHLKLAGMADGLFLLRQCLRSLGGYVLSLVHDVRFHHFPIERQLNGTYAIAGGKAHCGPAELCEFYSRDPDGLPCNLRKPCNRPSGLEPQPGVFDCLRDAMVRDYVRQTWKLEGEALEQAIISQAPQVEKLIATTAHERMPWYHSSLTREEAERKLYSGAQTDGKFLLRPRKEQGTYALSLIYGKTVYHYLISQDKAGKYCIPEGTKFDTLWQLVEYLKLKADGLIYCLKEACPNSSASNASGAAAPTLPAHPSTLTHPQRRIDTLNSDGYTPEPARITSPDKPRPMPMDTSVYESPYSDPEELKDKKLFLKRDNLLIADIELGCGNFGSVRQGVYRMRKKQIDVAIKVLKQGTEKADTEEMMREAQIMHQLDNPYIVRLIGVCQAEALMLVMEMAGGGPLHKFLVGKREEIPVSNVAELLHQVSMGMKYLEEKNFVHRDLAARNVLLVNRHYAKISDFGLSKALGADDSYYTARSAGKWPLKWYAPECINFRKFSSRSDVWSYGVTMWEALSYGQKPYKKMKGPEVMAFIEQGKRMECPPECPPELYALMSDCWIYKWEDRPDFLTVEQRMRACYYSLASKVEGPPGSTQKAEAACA
Protocol: as §1, §2, §3, §4, §5

T1 sequence (P35968 20-1356): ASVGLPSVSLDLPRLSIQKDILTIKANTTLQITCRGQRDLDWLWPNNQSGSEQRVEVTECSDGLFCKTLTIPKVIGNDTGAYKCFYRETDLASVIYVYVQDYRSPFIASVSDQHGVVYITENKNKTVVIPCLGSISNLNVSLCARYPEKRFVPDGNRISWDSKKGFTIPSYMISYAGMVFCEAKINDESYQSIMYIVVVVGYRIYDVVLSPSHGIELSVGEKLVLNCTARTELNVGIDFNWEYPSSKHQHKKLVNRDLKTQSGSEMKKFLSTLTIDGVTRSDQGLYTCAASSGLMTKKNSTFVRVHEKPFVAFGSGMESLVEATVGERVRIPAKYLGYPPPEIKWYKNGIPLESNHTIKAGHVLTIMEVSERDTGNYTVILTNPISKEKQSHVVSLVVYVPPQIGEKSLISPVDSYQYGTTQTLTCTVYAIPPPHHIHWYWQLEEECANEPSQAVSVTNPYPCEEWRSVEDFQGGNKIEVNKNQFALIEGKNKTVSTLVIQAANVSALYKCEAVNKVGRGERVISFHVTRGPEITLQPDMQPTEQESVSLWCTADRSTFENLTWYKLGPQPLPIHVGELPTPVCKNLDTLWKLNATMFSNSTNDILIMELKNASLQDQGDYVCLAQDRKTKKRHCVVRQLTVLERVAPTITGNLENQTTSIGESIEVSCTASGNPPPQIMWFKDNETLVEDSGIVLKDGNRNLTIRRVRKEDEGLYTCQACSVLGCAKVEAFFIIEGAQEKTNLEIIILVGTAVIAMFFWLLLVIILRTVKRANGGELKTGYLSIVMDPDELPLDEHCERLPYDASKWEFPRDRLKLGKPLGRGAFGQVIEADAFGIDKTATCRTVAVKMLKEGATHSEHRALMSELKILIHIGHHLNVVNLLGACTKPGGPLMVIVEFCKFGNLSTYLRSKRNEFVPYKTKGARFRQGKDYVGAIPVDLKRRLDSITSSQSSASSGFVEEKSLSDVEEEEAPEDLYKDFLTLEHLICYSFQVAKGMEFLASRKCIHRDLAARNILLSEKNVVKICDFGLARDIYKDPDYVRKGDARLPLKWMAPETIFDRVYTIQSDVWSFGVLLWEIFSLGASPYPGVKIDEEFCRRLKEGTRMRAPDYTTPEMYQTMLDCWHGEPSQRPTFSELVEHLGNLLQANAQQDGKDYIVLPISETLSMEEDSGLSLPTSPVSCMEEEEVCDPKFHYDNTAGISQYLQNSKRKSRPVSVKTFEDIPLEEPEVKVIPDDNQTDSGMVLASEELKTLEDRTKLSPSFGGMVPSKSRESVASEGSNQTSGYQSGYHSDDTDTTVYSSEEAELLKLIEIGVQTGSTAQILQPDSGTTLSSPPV

SMILES | pIC50 (KDR) | pIC50 (Syk) | pIC50 (ZAP-70)
Cc1cc(C)cc(Nc2nc3c(NC4CCCCC4N)nccn3n2)c1 (centres unmarked) [Example C56, N^8-(2-Amino-cyclohexyl)-N^2-(3,5-dimethyl-phenyl)-[1,2,4]triazolo[1,5-a]pyrazine-2,8-diamine] | 4.30 to 5.52 | 4.30 to 5.52 | 
Cc1cccc(Nc2nc3c(NCCN)nccn3n2)c1 [Example C45, N^8-(2-Amino-ethyl)-N^2-m-tolyl-[1,2,4]triazolo[1,5-a]pyrazine-2,8-diamine] | 4.30 to 5.52 | 4.30 to 5.52 | 
c1ccc(Cn2ncc3ccc(Nc4nc5c(Nc6ccccc6)nccn5n4)cc32)cc1 [Example C85, N^2-(1-Benzyl-1H-indazol-6-yl)-N^8-phenyl-[1,2,4]triazolo[1,5-a]pyrazine-2,8-diamine] |  |  | 5.52 to 6.52
Cn1ccnc1Sc1ccc(Nc2nccn3nc(Nc4cccc(C(F)(F)F)c4)nc23)cc1Cl [Example C68, N^8-[3-Chloro-4-(1-methyl-1H-imidazol-2-ylsulfanyl)-phenyl]-N^2-(3-trifluoromethyl-phenyl)-[1,2,4]triazolo[1,5-a]pyrazine-2,8-diamine] |  | 4.30 to 5.52 | 
Cc1cccc(Nc2nc3c(Nc4ccc5c(c4)NC(=O)C(F)(F)O5)nccn3n2)c1 [Example C71, 2,2-Difluoro-6-(2-m-tolylamino-[1,2,4]triazolo[1,5-a]pyrazin-8-ylamino)-4H-benzo[1,4]oxazin-3-one] |  | 4.30 to 5.52 | 
c1ccc(Cn2ncc3ccc(Nc4nccn5nc(Nc6ccccc6)nc45)cc32)cc1 [Example C75, N^8-(1-Benzyl-1H-indazol-6-yl)-N^2-phenyl-[1,2,4]triazolo[1,5-a]pyrazine-2,8-diamine] |  |  | 4.30 to 5.52
COCCCNc1nccn2nc(Nc3cc(C)cc(C)c3)nc12 [Example C37, N^2-(3,5-Dimethyl-phenyl)-N^8-(3-methoxy-propyl)-[1,2,4]triazolo[1,5-a]pyrazine-2,8-diamine] | 4.30 to 5.52 | 4.30 to 5.52 | 
NCCNc1nccn2nc(Nc3ccccc3)nc12 [Example C49, N^8-(2-Amino-ethyl)-N^2-phenyl-[1,2,4]triazolo[1,5-a]pyrazine-2,8-diamine] | 4.30 to 5.52 | 4.30 to 5.52 | 
O=C1Nc2cc(Nc3nc4c(Cl)nccn4n3)ccc2OC1(F)F [Example B7, 6-(8-Chloro-[1,2,4]triazolo[1,5-a]pyrazin-2-ylamino)-2,2-difluoro-4H-benzo[1,4]oxazin-3-one] |  | 5.52 to 6.52 | 
Cc1cccc(Nc2nc3c(NC4CCCCC4N)nccn3n2)c1 (centres unmarked) [Example C57, N^8-(2-Amino-cyclohexyl)-N^2-m-tolyl-[1,2,4]triazolo[1,5-a]pyrazine-2,8-diamine] | 4.30 to 5.52 | 4.30 to 5.52 | 
Cc1c(N)cccc1-c1nccn2nc(Nc3ccc(N4CCOCC4)cc3)nc12 [Example C293, [8-(3-Amino-2-methyl-phenyl)-[1,2,4]triazolo[1,5-a]pyrazin-2-yl]-(4-morpholin-4-yl-phenyl)-amine] |  | 5.52 to 6.52 | 
FC(F)(F)c1cccc(Nc2nc3c(-c4ccc(N5CCOCC5)cc4)nccn3n2)c1 [Example C12, [8-(4-Morpholin-4-yl-phenyl)-[1,2,4]triazolo[1,5-a]pyrazin-2-yl]-(3-trifluoromethyl-phenyl)-amine] |  | 4.30 to 5.52 | 

Other lines, results leading:

pIC50 (KDR) | pIC50 (Syk) | pIC50 (ZAP-70) | SMILES
 | 5.52 to 6.52 |  | COc1ccc(Nc2nc3c(-c4cccc(CN)c4)nccn3n2)cn1 [Example C254, [8-(3-Aminomethyl-phenyl)-[1,2,4]triazolo[1,5-a]pyrazin-2-yl]-(6-methoxy-pyridin-3-yl)-amine]
 | 5.52 to 6.52 |  | COc1ccc(Nc2nc3c(-c4cccc(NS(C)(=O)=O)c4)nccn3n2)cn1 [Example C274, N-{3-[2-(6-Methoxy-pyridin-3-ylamino)-[1,2,4]triazolo[1,5-a]pyrazin-8-yl]-phenyl}-methanesulfonamide]
 | 4.30 to 5.52 |  | Cc1cccc(Nc2nc3c(Nc4cccc(C(F)(F)F)c4)nccn3n2)c1 [Example C73, N^2-m-Tolyl-N^8-(3-trifluoromethyl-phenyl)-[1,2,4]triazolo[1,5-a]pyrazine-2,8-diamine]
4.30 to 5.52 | 5.52 to 6.52 |  | FC(F)(F)c1cccc(Nc2nc3c(-c4ccccc4)nccn3n2)c1 [Example C9, (8-Phenyl-[1,2,4]triazolo[1,5-a]pyrazin-2-yl)-(3-trifluoromethyl-phenyl)-amine]
5.52 to 6.52 | 5.52 to 6.52 |  | c1ccc(Nc2nc3c(-c4ccccc4)nccn3n2)cc1 [Example C10, Phenyl-(8-phenyl-[1,2,4]triazolo[1,5-a]pyrazin-2-yl)-amine]
 | 4.30 to 5.52 |  | COc1cc(Nc2nc3c(NC4CCCCC4N)nccn3n2)cc(OC)c1 (centres unmarked) [Example C54, N^8-(2-Amino-cyclohexyl)-N^2-(3,5-dimethoxy-phenyl)-[1,2,4]triazolo[1,5-a]pyrazine-2,8-diamine]
4.30 to 5.52 | 5.52 to 6.52 |  | COc1cc(OC)cc(-c2nccn3nc(Nc4cc(C)cc(C)c4)nc23)c1 [Example C15, [8-(3,5-Dimethoxy-phenyl)-[1,2,4]triazolo[1,5-a]pyrazin-2-yl]-(3,5-dimethyl-phenyl)-amine]
4.30 to 5.52 | 5.52 to 6.52 |  | COc1cc(OC)cc(-c2nccn3nc(Nc4cccc(C)c4)nc23)c1 [Example C17, [8-(3,5-Dimethoxy-phenyl)-[1,2,4]triazolo[1,5-a]pyrazin-2-yl]-m-tolyl-amine]
 | > 6.52 |  | COc1cc(Nc2nc3c(-c4cnc5ccccc5c4)nccn3n2)cc(OC)c1 [Example C260, (3,5-Dimethoxy-phenyl)-(8-quinolin-3-yl-[1,2,4]triazolo[1,5-a]pyrazin-2-yl)-amine]
 |  | 4.30 to 5.52 | Cc1cccc(Nc2nccn3nc(Nc4ccc5cnn(Cc6ccccc6)c5c4)nc23)c1 [Example C84, N^2-(1-Benzyl-1H-indazol-6-yl)-N^8-m-tolyl-[1,2,4]triazolo[1,5-a]pyrazine-2,8-diamine]
 |  | 4.30 to 5.52 | Cc1cc(C)cc(Nc2nccn3nc(Nc4cccc(C(F)(F)F)c4)nc23)c1 [Example C86, N^8-(3,5-Dimethyl-phenyl)-N^2-(3-trifluoromethyl-phenyl)-[1,2,4]triazolo[1,5-a]pyrazine-2,8-diamine]
4.30 to 5.52 | 4.30 to 5.52 |  | COCCCNc1nccn2nc(Nc3ccccc3)nc12 [Example C53, N^8-(3-Methoxy-propyl)-N^2-phenyl-[1,2,4]triazolo[1,5-a]pyrazine-2,8-diamine]
 | 5.52 to 6.52 |  | Cc1cc(C)cc(Nc2nc3c(-c4ccccc4)nccn3n2)c1 [Example C7, (3,5-Dimethyl-phenyl)-(8-phenyl-[1,2,4]triazolo[1,5-a]pyrazin-2-yl)-amine]
 | 5.52 to 6.52 |  | COc1ccc(Nc2nc3c(-c4cnc5ccccc5c4)nccn3n2)cn1 [Example C262, (6-Methoxy-pyridin-3-yl)-(8-quinolin-3-yl-[1,2,4]triazolo[1,5-a]pyrazin-2-yl)-amine]
 | 4.30 to 5.52 |  | Clc1nccn2nc(Nc3ccc4cnn(Cc5ccccc5)c4c3)nc12 [Example B9, (1-Benzyl-1H-indazol-6-yl)-(8-chloro-[1,2,4]triazolo[1,5-a]pyrazin-2-yl)-amine]
 | > 6.52 |  | COc1cc(Nc2nc3c(-c4cc(OC)cc(OC)c4)nccn3n2)cc(OC)c1 [Example C16, (3,5-Dimethoxy-phenyl)-[8-(3,5-dimethoxy-phenyl)-[1,2,4]triazolo[1,5-a]pyrazin-2-yl]-amine]
